According to ChEMBL document CHEMBL1147545, “Synthesis and monoamine transporter affinity of 3'-analogs of 2-beta-carbomethoxy-3-beta-(4'-iodophenyl)tropane (beta-CIT)” (Bioorg Med Chem Lett, 2004):
pKi: −log10 of the molar value.

How the values were obtained:
[1] = target: Sodium-dependent serotonin transporter (Rattus norvegicus, UniProt P31652); assay: Binding affinity to serotonin transporter (SERT) in rat forebrain tissue; type: tissue-based
[2] = target: Sodium-dependent noradrenaline transporter (Homo sapiens, UniProt P23975); assay: Binding affinity to norepinephrine (NE) transporter in membranes of cells selectively expressing the human genes for NET; type: cell membranes
Sequence of Sodium-dependent noradrenaline transporter (P23975 whole entry): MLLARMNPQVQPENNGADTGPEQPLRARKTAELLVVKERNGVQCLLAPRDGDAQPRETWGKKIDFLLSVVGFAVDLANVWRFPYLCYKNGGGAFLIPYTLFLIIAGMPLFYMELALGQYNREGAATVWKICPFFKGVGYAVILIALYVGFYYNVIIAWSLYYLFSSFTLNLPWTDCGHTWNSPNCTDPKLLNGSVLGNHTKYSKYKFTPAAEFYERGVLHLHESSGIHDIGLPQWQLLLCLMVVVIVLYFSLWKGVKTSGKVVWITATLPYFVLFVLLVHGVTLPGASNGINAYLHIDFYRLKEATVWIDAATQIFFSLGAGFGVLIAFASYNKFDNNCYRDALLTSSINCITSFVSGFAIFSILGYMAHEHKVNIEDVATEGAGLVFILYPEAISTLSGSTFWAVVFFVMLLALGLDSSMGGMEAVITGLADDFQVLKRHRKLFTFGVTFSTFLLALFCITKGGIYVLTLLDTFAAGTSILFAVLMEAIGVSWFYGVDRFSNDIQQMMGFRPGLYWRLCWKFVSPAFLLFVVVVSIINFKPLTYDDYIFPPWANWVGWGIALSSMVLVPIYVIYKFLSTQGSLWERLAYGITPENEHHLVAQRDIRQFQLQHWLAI

[3] = target: Monoamine transporters; serotonin & dopamine (Homo sapiens) (UniProt P31645+Q01959); assay: Binding selectivity ratio at human serotonin transporter versus dopamine transporter (hSERT/hDAT); type: protein assay
Sequence of Monoamine transporters; serotonin & dopamine (Homo sapiens) (P31645 whole entry, looked up): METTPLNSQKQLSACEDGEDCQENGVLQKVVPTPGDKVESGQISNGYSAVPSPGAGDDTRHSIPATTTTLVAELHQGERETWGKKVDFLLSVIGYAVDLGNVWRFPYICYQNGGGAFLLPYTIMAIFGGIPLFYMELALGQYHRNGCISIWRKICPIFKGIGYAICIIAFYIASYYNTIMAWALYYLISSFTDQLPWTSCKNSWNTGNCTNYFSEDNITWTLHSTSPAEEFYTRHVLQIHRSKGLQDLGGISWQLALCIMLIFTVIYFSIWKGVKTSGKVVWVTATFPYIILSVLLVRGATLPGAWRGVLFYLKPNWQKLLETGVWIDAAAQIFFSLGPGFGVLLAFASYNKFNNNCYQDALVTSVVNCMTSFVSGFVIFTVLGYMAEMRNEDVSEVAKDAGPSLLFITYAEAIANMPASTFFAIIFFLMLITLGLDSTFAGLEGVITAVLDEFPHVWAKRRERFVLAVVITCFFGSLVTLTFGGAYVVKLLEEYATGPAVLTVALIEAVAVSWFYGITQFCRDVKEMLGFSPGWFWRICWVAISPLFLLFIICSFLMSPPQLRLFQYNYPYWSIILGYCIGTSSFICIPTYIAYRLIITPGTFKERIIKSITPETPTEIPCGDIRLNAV
Sequence of Monoamine transporters; serotonin & dopamine (Homo sapiens) (Q01959 whole entry, looked up): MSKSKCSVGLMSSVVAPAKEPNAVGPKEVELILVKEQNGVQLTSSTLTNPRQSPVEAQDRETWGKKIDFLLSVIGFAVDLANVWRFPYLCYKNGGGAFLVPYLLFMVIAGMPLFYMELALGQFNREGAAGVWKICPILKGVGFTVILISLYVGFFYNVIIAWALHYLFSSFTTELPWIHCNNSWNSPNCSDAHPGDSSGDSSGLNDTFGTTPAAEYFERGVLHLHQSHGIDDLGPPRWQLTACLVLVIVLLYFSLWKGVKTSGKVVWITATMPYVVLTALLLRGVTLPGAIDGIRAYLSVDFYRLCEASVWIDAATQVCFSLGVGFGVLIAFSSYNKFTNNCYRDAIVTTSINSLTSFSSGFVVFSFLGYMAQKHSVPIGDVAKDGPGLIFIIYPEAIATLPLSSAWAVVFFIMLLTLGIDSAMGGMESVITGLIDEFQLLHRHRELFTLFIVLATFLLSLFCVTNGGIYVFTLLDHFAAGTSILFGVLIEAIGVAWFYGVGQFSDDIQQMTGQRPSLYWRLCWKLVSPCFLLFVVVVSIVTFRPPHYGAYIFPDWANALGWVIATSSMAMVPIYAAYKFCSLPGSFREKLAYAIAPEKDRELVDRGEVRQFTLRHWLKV

[4] = target: Norepinephrine transporter (Rattus norvegicus, UniProt Q9WTR4); assay: Binding affinity to norepinephrine (NE) transporter in rat forebrain tissue; type: tissue-based
Sequence of Norepinephrine transporter (Q9WTR4 whole entry): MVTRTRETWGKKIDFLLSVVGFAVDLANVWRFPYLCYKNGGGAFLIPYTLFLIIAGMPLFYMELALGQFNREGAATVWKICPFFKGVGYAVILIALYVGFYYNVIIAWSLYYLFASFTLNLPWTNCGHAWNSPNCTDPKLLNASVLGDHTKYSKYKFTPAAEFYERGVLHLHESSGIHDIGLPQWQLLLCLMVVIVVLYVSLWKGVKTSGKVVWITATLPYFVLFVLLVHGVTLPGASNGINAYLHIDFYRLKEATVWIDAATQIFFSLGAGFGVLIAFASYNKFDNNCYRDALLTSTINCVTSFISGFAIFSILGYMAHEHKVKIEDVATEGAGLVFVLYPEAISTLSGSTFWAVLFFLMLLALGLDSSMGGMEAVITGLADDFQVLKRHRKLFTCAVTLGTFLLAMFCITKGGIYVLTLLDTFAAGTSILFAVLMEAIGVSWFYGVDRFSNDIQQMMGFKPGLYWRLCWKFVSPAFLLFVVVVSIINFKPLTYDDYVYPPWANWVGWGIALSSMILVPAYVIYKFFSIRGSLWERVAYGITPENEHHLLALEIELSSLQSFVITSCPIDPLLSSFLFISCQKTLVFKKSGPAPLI

[5] = target: Sodium-dependent dopamine transporter (Rattus norvegicus, UniProt P23977); assay: Binding affinity to dopamine transporter (DAT) in rat forebrain tissue; type: tissue-based
Sequence of Sodium-dependent dopamine transporter (Rattus norvegicus, UniProt P23977) (P23977 whole entry): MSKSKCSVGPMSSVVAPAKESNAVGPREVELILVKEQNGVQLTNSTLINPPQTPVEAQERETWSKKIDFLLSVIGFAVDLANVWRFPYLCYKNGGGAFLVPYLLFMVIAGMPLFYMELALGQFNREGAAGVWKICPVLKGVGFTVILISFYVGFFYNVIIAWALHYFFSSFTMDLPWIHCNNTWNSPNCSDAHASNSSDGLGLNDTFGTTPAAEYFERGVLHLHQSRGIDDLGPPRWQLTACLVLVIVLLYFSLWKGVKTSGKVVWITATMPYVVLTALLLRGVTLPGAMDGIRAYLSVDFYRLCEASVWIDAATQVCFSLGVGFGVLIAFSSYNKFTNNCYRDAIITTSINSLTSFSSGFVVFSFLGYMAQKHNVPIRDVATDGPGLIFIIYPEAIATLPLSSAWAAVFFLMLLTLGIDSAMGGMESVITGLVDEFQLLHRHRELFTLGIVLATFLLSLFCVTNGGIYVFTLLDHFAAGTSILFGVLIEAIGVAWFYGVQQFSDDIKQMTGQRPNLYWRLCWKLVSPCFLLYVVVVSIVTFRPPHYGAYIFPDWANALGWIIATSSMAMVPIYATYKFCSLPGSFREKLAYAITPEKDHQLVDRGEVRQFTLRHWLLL

[6] = target: Sodium-dependent serotonin transporter (Homo sapiens, UniProt P31645); assay: Binding affinity to serotonin transporter (SERT) in membranes of cells selectively expressing the human genes for SERT; type: cell membranes
Sequence of Sodium-dependent serotonin transporter (Homo sapiens, UniProt P31645) (P31645 whole entry): as the sequence (P31645 whole entry, looked up) above

[7] = target: Sodium-dependent dopamine transporter (Homo sapiens, UniProt Q01959); assay: Binding affinity to dopamine transporter in membranes of cells selectively expressing the human genes for DAT; type: cell membranes
Sequence of Sodium-dependent dopamine transporter (Homo sapiens, UniProt Q01959) (Q01959 whole entry): as the sequence (Q01959 whole entry, looked up) above

Sequence of Sodium-dependent serotonin transporter (Rattus norvegicus, UniProt P31652) (P31652 whole entry): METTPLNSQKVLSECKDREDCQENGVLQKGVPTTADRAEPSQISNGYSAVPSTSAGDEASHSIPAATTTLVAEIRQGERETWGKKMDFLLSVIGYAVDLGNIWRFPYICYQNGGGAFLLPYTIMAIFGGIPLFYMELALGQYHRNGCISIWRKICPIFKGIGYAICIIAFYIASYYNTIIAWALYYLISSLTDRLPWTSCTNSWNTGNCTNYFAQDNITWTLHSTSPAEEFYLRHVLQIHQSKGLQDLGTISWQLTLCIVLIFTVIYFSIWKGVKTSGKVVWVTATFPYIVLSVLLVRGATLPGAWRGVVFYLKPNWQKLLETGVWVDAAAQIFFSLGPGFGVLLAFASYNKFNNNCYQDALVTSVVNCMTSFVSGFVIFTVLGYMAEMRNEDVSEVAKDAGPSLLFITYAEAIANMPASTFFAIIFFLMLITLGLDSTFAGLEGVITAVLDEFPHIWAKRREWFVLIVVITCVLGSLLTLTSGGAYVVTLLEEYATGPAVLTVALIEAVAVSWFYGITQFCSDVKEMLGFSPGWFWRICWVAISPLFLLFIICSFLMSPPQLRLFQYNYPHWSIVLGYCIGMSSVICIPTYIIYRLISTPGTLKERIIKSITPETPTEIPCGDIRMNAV

Row | Structure (SMILES) | pKi [1] | pKi [2] | Selectivity ratio [3] | pKi [4] | pKi [5] | pKi [6] | pKi [7]
1 | COC(=O)[C@@H]1C2CC[C@H](C[C@@H]1c1ccc(I)cc1)N2C | 9.39 | 7.95 |  |  |  |  | 
2 | COC(=O)C1C(c2cccc(I)c2)CC2CCC1N2C (stereo not drawn) | 8.01 | 5.98 | 18.9 | < 5.00 | 7.00 | 8.02 | 6.74
3 | COC(=O)C1C(c2cccc(-c3ccco3)c2)CC2CCC1N2C (stereo not drawn) | 7.38 | 5.52 | 0.98 | 5.00 | 7.51 | 7.26 | 7.27
4 | COC(=O)C1C2CCC(CC1c1cccc(I)c1)N2 (stereo not drawn) | 8.87 | 6.93 | 356 | 6.55 | 7.67 | 8.91 | 6.36
5 | COC(=O)C1C(c2cccc(-c3ccccc3)c2)CC2CCC1N2C (stereo not drawn) | 7.45 | 5.87 | 0.229 | < 5.00 | 8.02 | 7.41 | 8.05
6 | COC(=O)C1C2CCC(CC1c1ccc(I)cc1)N2 (stereo not drawn) | 10.21 |  |  |  |  |  | 
7 | COC(=O)C1C(c2cccc(-c3ccsc3)c2)CC2CCC1N2C (stereo not drawn) | 7.08 | < 4.70 | 0.402 | < 5.00 | 7.63 | 7.13 | 7.53
